Earlier results on two compounds are cited in patent US8575172B2 (Zysis Limited, priority 2006, dated 2013).

The subject of series [1] is alpha adrenergic receptors.
The subject of series [2] is histamine receptors.
Series [3] addresses CYP2D6 (Homo sapiens, UniProt P10635).
Series [4] relates to cholinergic muscarinic receptors.
The conditions of series [5]: single oral dose.
In series [6] the target is T1, 5-HT1A receptor (Homo sapiens, UniProt P08908).
T1 sequence (P08908 1-422): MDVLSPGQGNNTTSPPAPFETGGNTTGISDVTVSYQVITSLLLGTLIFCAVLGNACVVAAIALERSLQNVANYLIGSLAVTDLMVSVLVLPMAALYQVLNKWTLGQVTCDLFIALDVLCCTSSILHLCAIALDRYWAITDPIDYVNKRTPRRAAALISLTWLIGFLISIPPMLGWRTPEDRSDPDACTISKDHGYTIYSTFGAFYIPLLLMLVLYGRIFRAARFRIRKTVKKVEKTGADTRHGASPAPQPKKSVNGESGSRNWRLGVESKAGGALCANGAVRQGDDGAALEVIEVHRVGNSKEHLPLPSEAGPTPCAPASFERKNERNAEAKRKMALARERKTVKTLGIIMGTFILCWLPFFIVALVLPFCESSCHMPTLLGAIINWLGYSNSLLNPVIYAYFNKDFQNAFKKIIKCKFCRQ

Series [7] deals with 5-HT2A receptor (Homo sapiens, UniProt P28223).
Setting [8] is: CYP2D6 poor vs extensive metabolizers.

Where two headings read alike, the source gives them in different places.

Sequence of 5-HT2A receptor (P28223 whole entry): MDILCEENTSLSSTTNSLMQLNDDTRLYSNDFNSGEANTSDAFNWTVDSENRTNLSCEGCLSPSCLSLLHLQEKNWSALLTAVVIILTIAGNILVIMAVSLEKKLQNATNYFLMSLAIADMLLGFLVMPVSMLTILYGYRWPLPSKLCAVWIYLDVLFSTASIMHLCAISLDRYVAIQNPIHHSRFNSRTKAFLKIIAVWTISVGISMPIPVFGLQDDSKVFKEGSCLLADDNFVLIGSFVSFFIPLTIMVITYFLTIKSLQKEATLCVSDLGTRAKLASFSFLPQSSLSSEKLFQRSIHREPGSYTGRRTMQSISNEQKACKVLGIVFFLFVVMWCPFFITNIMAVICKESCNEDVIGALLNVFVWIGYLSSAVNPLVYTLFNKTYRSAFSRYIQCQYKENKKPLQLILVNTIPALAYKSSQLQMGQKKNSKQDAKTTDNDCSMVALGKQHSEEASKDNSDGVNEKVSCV
Sequence of CYP2D6 (P10635 whole entry): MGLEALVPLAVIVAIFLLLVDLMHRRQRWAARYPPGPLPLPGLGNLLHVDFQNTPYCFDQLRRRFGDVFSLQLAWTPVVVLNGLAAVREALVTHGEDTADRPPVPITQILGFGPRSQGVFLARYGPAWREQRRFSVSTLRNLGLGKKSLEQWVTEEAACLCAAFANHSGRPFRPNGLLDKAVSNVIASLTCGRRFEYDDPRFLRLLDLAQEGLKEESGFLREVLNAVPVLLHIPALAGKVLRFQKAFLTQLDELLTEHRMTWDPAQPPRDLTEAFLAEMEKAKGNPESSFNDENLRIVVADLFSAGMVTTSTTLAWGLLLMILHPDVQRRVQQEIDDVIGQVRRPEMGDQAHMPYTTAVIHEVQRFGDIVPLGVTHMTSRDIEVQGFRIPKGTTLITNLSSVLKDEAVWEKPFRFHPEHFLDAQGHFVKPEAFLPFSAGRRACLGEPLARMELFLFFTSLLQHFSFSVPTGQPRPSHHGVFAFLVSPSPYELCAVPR

As to `O=C1CCc2ccc(OCCCCN3CCN(c4cccc(Cl)c4Cl)CC3)cc2N1` [aripiprazole, 7-[4-[4-(2,3-dichlorophenyl)piperazin-1-yl]butoxy]-3,4-dihydro-1H-quinolin-2-one], the “affinity for alpha adrenergic receptors” value in series [1] is given as “moderate affinity”. Besides, in series [2], the “affinity for histamine receptors” value is on record as “moderate affinity”. In series [3], the “effect on the CYP2D6 pathway” value is “does not inhibit or induce”. Also, the “affinity for cholinergic muscarinic receptors” value in series [4] is “no appreciable affinity”. Further, in series [5], the “oral dose recovered unchanged in the feces” value is given as “approximately 18%” and the “unchanged aripiprazole excreted in the urine” value is recorded as “Less than 1%”. Besides, in series [5] ([14C]-labeled), the “administered radioactivity recovered in the feces” value is about 55% and the “administered radioactivity recovered in the urine” value is listed as “approximately 25%”. For the same compound, the “activity at the 5-HT1A receptor” value in series [6] was “partial agonist”. The mean elimination half-life result (CYP2D6 extensive metabolizers (EMs)) was “about 75 hours”. In addition, the mean elimination half-life (CYP2D6 poor metabolizers (PMs)) is about 146 h. Further, the “increase in aripiprazole exposure in PMs compared to EMs” value under setting [8] is recorded as about 80%. Further, the absorption entry (administered orally as the solution) is recorded as “well absorbed”. Moreover, the absorption result (after administration of the IR tablet) is on record as “well absorbed”. Besides, the “higher exposure to the total active moieties in PMs compared to EMs” value (from a given dose of aripiprazole) is about 60%. Further, where the note is “in vivo”, the mean elimination half-life result is given as “about 75 hours” and the “pharmacokinetics at steady state” value was “dose-proportional”. For the same compound, in series [7], the “profile at the 5-HT2A receptor” value is reported as “antagonist”.

On to `O=c1ccc2ccc(OCCCCN3CCN(c4cccc(Cl)c4Cl)CC3)cc2[nH]1` [dehydro-aripiprazole], for which, under setting [8], the “decrease in exposure to the active metabolite in PMs compared to EMs” value is recorded as about 30%. The “share of aripiprazole AUC in plasma” value (at steady state) was “about 40%”. Moreover, under “in vivo”, the mean elimination half-life was about 94 h and the “share of the parent drug exposure in plasma” value is 40%.
